Experimental data from ChEMBL document CHEMBL3046528, “Pharmacophore-based 3D-QSAR study of fungal chitin synthase inhibitors” (Med Chem Res, 2013).

Legend:
Chitin synthase = Chitin synthase (Candida albicans, UniProt P30572+P23316+P30573); assay: Inhibition of Candida albicans chitin synthase; type: protein assay
Chitin synthase 3 = target: T1, Chitin synthase 3 (Saccharomyces cerevisiae S288c, UniProt P29465); assay: Inhibition of Saccharomyces cerevisiae chitin synthase
T1 sequence (P29465 whole entry): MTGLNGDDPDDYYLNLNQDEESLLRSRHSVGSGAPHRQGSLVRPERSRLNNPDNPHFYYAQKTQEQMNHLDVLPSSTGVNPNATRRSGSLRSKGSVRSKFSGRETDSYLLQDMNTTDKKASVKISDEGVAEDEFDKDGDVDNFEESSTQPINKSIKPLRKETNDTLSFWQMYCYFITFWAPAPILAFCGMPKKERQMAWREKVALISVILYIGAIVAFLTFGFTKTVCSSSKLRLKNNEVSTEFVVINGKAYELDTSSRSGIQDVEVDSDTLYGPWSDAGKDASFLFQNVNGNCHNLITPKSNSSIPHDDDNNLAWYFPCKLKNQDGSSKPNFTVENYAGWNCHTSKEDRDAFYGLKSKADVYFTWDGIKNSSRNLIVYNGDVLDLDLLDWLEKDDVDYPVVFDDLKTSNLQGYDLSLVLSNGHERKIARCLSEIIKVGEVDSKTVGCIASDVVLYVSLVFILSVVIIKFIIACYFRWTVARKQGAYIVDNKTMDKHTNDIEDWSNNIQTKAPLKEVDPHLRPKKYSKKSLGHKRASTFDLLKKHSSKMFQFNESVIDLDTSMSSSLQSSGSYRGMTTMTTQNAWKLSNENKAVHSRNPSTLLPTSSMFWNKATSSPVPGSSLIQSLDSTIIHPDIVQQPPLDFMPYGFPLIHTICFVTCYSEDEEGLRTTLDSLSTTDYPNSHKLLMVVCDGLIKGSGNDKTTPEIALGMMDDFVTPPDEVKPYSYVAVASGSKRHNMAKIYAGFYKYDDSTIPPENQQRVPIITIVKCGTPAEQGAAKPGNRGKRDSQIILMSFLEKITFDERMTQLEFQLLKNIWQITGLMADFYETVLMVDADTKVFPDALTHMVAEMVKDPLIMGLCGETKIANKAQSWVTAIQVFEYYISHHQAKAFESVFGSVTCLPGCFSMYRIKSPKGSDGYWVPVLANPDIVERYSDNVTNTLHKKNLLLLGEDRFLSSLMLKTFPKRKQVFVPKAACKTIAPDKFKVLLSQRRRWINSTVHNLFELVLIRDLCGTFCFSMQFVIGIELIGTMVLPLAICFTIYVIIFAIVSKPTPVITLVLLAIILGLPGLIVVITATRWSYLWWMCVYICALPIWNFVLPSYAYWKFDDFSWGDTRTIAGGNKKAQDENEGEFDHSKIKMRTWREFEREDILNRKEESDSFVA

| pIC50 (Chitin synthase) | IC50 (Chitin synthase 3) | Structure (SMILES) |
| --- | --- | --- |
| 4.523 | – | CN(CCCC#CC(C)(C)C)c1cccc2c1CCC(=O)N2 |
| – | 94.2 µM | O=C(/C=C/c1ccc2ccccc2c1)c1ccccc1 |
| 5.985 | – | CCCCN(C/C=C/C#CC(C)(C)C)c1cccc2c1CCC(=O)N2 |
| 4.529 | – | CCC#CC#CCN(C)c1cccc2c1CCC(=O)N2 |
| 5.679 | – | CCCN(C/C=C/C#CC(C)(C)C)c1cccc2c1CCC(=O)N2 |
| 6.323 | – | CN(CC#CC#CC(C)(C)C)c1cccc2c1CCC(=O)N2 |
| 4.401 | – | CN(CC#CC#CC(C)(C)C)c1cccc2c1CC(N)C(=O)N2 (configuration not stated) |
| 3.143 | – | CN(CC#CC#CC(C)(C)O)c1cccc2c1CCC(=O)N2 |
| – | 298 µM | COc1cccc(/C=C/C(=O)c2ccccc2)c1OC |
| 5.506 | – | CCCCCN(C/C=C/C#CC(C)(C)C)c1cccc2c1CCC(=O)N2 |
| 4.422 | – | CC(C)[C@H](N)C(=O)OC1Cc2c(cccc2N(C)CC#CC#CC(C)(C)C)NC1=O (some centres not stated) |
| 3.6 | – | CC(C)(C)C#C/C=C/CNc1cccc2c1CCC(=O)N2 |
| 5.538 | – | CCN(C/C=C/C#CC(C)(C)C)c1cccc2c1CCC(=O)N2 |
| – | 824 µM | O=C(/C=C/c1ccco1)c1ccc(Cl)cc1Cl |
| 5.421 | – | CC(C)N(C/C=C/C#CC(C)(C)C)c1cccc2c1CCC(=O)N2 |
| – | 372 µM | COc1ccc(/C=C/C(=O)c2ccccc2)c(OC)c1 |
| 4.681 | – | CN(Cc1ccc(C#CC(C)(C)C)cc1)c1cccc2c1CCC(=O)N2 |
| 3.839 | – | CC(C)(C)C#C/C=C/CN(Cc1ccccc1)c1cccc2c1CCC(=O)N2 |
| 5.769 | – | CCOP(=O)(OCC)OC1Cc2c(cccc2N(C)CC#CC#CC(C)(C)C)NC1=O (configuration not stated) |
| 5.029 | – | CN(C/C=C/C#CC(C)(C)C)c1cccc2c1CCC(=O)N2 |
| – | 372 µM | COc1ccc(/C=C/C(=O)c2ccccc2)cc1OC |
| 5.015 | – | CN(CC#CC#CC(C)(C)C)c1cccc2c1CC(O)C(=O)N2 (configuration not stated) |
